Columns and labels:
trypsin = trypsin (Homo sapiens, UniProt P07477); assay: Determination of enzyme selectivity: trypsin; format: biochemical; conditions: substrate at Km concentration
Procedure: Human serine protease enzymes plasmin, thrombin, trypsin, Factor Xa and Factor XIIa were assayed for enzymatic activity using an appropriate fluorogenic substrate. Protease activity was measured by monitoring the accumulation of liberated fluorescence from the substrate over 5 minutes. The linear rate of fluorescence increase per minute was expressed as percentage (%) activity. The Km for the cleavage of each substrate was determined by standard transformation of the Michaelis-Menten equation.

Human plasma kallikrein = Human plasma kallikrein (Homo sapiens (Human), UniProt P03952); assay: Determination of the IC50 for plasma kallikrein; format: biochemical; conditions: 37° C., fluorogenic substrate H-DPro-Phe-Arg-AFC; read-out: IC50 (human PKal)
Procedure: Human plasma kallikrein (Protogen) was incubated at 37° C. with the fluorogenic substrate H-DPro-Phe-Arg-AFC and various concentrations of the test compound. Residual enzyme activity (initial rate of reaction) was determined by measuring the change in optical absorbance at 410 nm and the IC50 value for the test compound was determined.

Human KLK1 = Human KLK1 (Homo sapiens (Human), UniProt P06870); assay: Determination of the IC50 for KLK1; format: biochemical; conditions: 37° C., fluorogenic substrate H-DVal-Leu-Arg-AFC
Procedure: KLK1 inhibitory activity in vitro was determined using standard published methods (see e.g. Johansen et al., Int. J. Tiss. Reac. 1986, 8, 185; Shori et al., Biochem. Pharmacol., 1992, 43, 1209; Stürzebecher et al., Biol. Chem. Hoppe-Seyler, 1992, 373, 1025). Human KLK1 (Callbiochem) was incubated at 37° C. with the fluorogenic substrate H-DVal-Leu-Arg-AFC and various concentrations of the test compound. Residual enzyme activity (initial rate of reaction) was determined by measuring the change in optical absorbance at 410 nm and the IC50 value for the test compound was determined.

diabetic rats = conditions: cited from earlier work

Sequence of Human plasma kallikrein (P03952 391-638): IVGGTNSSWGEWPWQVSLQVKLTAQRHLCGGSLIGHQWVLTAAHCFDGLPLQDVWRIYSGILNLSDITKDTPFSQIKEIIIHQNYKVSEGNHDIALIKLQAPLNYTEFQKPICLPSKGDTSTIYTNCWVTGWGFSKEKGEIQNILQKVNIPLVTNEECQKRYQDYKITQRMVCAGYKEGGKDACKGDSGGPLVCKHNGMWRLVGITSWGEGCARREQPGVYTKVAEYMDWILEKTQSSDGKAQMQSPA
Sequence of Human plasma kallikrein (P03952 20-390 partner): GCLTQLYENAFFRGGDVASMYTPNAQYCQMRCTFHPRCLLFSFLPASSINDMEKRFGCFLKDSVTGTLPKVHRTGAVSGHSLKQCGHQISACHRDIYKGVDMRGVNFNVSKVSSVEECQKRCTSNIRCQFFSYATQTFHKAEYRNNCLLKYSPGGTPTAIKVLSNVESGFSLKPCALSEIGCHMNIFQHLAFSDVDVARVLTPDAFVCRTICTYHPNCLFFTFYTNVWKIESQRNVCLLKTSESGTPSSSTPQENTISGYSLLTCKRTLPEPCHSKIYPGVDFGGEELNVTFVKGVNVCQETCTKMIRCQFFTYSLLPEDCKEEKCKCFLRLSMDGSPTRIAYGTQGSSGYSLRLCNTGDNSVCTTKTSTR
Sequence of Human KLK1 (P06870 25-262): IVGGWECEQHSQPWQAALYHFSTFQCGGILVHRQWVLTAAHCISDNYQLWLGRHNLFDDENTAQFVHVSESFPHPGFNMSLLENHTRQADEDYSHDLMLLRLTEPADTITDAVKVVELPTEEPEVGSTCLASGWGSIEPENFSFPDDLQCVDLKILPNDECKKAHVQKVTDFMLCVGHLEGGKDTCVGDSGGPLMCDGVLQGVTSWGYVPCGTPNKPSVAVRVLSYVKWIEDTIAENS

| IC50 (trypsin) | Compound | IC50 (Human plasma kallikrein) | IC50 (Human KLK1) | further results |
| --- | --- | --- | --- | --- |
| > 40 µM | Cc1cc(C(=O)NCc2ccc(CN)cc2)c(C)n1Cc1csc(-c2ccccc2)n1 [Example 1, 2,5-Dimethyl-1-(2-phenyl-thiazol-4-ylmethyl)-1H-pyrrole-3-carboxylic acid 4-aminomethyl-benzylamide] | – | – | – |
| – | Cc1cc(C(=O)NCc2ccc(CN)cc2)c(C)n1Cc1csc(-c2ccoc2)n1 [Example 39, 2,5-Dimethyl-1-(2-furan-3-yl-thiazol-4-ylmethyl)-1H-pyrrole-3-carboxylic acid 4-aminomethyl-benzylamide] | 1.09 µM | > 10 µM | – |
| – | Cc1cc(C(=O)NCc2ccc(CN)cc2)c(C)n1Cc1cc(-c2ccccc2)cs1 [Example 9, 2,5-Dimethyl-1-(4-phenyl-thiophen-2-ylmethyl)-1H-pyrrole-3-carboxylic acid 4-aminomethyl-benzylamide] | 0.543 µM | > 10 µM | – |
| – | N=C(N)c1ccc(CNC(=O)c2cnn(Cc3ccccc3)c2)cc1 [ASP-440] | – | – | retinal vascular permeability and retinal blood flow abnormalities (diabetic rats): ameliorated |
| > 40 µM | Cc1cc(CN)ccc1CNC(=O)c1cc(C)n(Cc2csc(-c3ccccc3)n2)c1C [Example 2, 2,5-Dimethyl-1-(2-phenyl-thiazol-4-ylmethyl)-1H-pyrrole-3-carboxylic acid 4-aminomethyl-2-methyl-benzylamide] | – | – | – |
| 26.6 µM | NCc1ccc(CNC(=O)c2cn(Cc3csc(-c4ccccc4)n3)nc2C(F)(F)F)cc1 [Example 83, 1-(2-Phenyl-thiazol-4-ylmethyl)-3-trifluoromethyl-1H-pyrazole-4-carboxylic acid 4-aminomethyl-benzylamide] | – | – | – |
| – | Cc1cc(C(=O)NCc2ccc(CN)cc2)c(C)n1Cc1ccc(-c2ccncc2)s1 [Example 21, 2,5-Dimethyl-1-(5-pyridin-4-yl-thiophen-2-ylmethyl)-1H-pyrrole-3-carboxylic acid 4-aminomethyl-benzylamide] | 4.52 µM | 7.5 µM | – |

| Compound | IC50 (trypsin) | IC50 (Human plasma kallikrein) | IC50 (Human KLK1) | further results |
| --- | --- | --- | --- | --- |
| NCc1ccc(CNC(=O)c2cn(Cc3ccccc3)nc2-c2ccccc2)cc1 [Example 84, 1-Benzyl-3-phenyl-1H-pyrazole-4-carboxylic acid 4-aminomethyl-benzylamide] | > 40 µM | – | – | – |
